Data taken from US11548918B2, “Sodium channel protein Nav1.4-targeting polypeptide and use thereof” (priority 2021, dated 2023).
Where no end group is shown, it is not given here.

Test system: skin wrinkles
Assay: Clinical trial of wrinkle reduction, wrinkle volume measured with PRIMOS CR
Type: in vivo, human
Conditions: lotion with 0.0003 wt % NaV-B, 0.1 g at corners of eyes, female volunteers
Experimental: The capacity of NaV-B in reducing skin wrinkles was evaluated by clinical trials, wherein a total of 30 female volunteers ranging from 35 to 55 years old were participating in the trials. In the trials, 0.1 g of lotion was evenly applied to the corners of the volunteers' eyes. The wrinkle volume of each volunteer was measured with a wrinkle analyzer PRIMOS CR at various moments: before application, 15 minutes after application, 1 hour after application, 2 hours after application, and 4 hours after application.
The lotion was prepared by adding NaV-B, glycerin, 1,3-butanediol, sodium hyaluronate, and methylparaben into deionized water according to the following proportions, and stirring until all the ingredients were dissolved.
Results: The reduced wrinkle volumes of each volunteer were obtained by subtracting the volume measured before application from the volumes measured 15 minutes after application, 1 hour after application, 2 hours after application, and 4 hours after application. The percentages of reduced wrinkle volume of each volunteer were obtained through dividing the reduced wrinkle volumes by the volume measured before application.

Substance: Synthetic Nav1.4-targeting polypeptide, amino acid sequence GHCCGDEYRKWCGKRVCRNKARCC (disulfide (positions not given here); not fully specified (bridges)) [NaV-B]
- percentage of reduced wrinkle volume (average of all volunteers) (15 minutes after application): more than 9%
- percentage of reduced wrinkle volume (average of all volunteers) (4 hours after application): more than 15%
